# Test results: patent US12398141B2 (SHANGHAI SYNERGY PHARMACEUTICAL SCIENCES CO., LTD, priority 2019, dated 2025)
# Columns and labels:
# [1] = Pharmacokinetic test after intragastric administration; type: in vivo; conditions: Sprague-Dawley, mouse, plasma, po, SD mice, 5 mg/kg intragastric
# Protocol: Drug concentrations of compounds H01, H07, H11, H12, H14, H15, H22, H25, H29, H30, H33, H39 and H44 intragastrically administrated in plasma by using LC/MS/MS method at various time points were determined by using Sprague-Dawley (SD) […], aged 7-8 weeks and weighing […] as test animals. Pharmacokinetic behavior of the compounds of the invention in […] was studied and its pharmacokinetic characteristics were evaluated.
# A certain amount of compounds was taken and dissolved in 50% PEG400/water to prepare a uniform solution.
# Mice were administered intragastrically with the above compounds with a dosage of 5 mg/kg. Blood (0.2 ml) was taken from orbits before administration and 0.083 h, 0.25 h, 0.5 h, 1.0 h, 2.0 h, 4.0 h, 6.0 h, 8.0 h, 12.0 h and 24.0 h after administration. The blood was placed in anticoagulant tubes containing dipotassium ethylene glycol diethyl ether diamine tetraacetic acid, centrifugated at 6000 rpm at 4° C. for 10 minutes to separate plasma and saved at −80° C.
# 50 μL plasma at various time was taken and 150 μL acetonitrile solution containing internal standard tolbutamide (Sigma, USA) was added, mixed and stirred for 5 minutes. After centrifugation for 5 minutes at 12,000 rpm, 100 μL supernatant was taken, mixed with 200 μL water, following by sample injection and analysis.
# Liquid chromatogram system was LC-20AD UFLC High Performance Liquid Chromatography system. Mass spectrum system was AB Sciex API4000 triple quadrupole mass spectrometer equipped with Electron Spray Ionization (ESI) (Applied Biosystems, Canada). A software for controlling liquid chromatography-mass spectrometry and quantitative analysis was Anna Rust 1.6 (Applied Biosystems, Canada). Pharmacokinetic parameters were analyzed by WinNonlin (version 5.2, Pharsight, Mountain View, […]) non-compartment model.
# The test compound was dissolved in dimethyl sulfoxide to prepare a stock solution with a concentration of 1 mg/mL. The solution was diluted with 50% acetonitrile to obtain a series of standard working solutions with concentrations of 10 μg/mL, 3 μg/mL, 1 μg/mL, 0.3 μg/mL, 0.1 μg/mL, 0.03 μg/mL and 0.01 μg/mL, and a series of standard quality control solutions with concentrations of 8 μg/mL, 0.5 μg/mL, 0.03 μg/mL. 5 μL standard solution was mixed with 45 μL blank plasma substrate uniformly to obtain standard solutions of each concentration of a standard curve (1000 ng/mL, 500 ng/mL, 200 ng/mL, 100 ng/mL, 10 ng/mL, 5 ng/mL, 2 and 1 ng/mL) and quality control solutions (plasma samples: 800 ng/mL, 50 and 3 ng/mL).
# Internal standard tolbutamide solid powder was dissolved in dimethyl sulfoxide to prepare a 1 mg/mL stock solution. The stock solution was diluted with 100% acetonitrile to obtain 200 ng/mL solution as a protein precipitation solution.
# male ICR mice = experiment: Carrageenan-induced paw swelling in mice; type: in vivo; conditions: 10 mg/kg intragastric
# Protocol: The inhibiting effects of compounds H01, H07, H11, H12, H14, H15, H22, H25, H29, H30, H33, H39 and H44 on paw swelling in mice were determined after intragastric administration by using male ICR mice (ShanghaiSippr-BK laboratory animal Co. Ltd.), aged 8 weeks and weighing 22-24 g as test animals. The anti-inflammatory pharmacodynamics characteristic of the compounds of the invention was discussed.
# A certain amount of compounds were taken and dissolved in 4% Tween 80/0.5% hydroxy propyl methyl cellulose solution. A volume of intragastric administration in mice was 10 ml/kg.
# Mice were given 10 mg/kg compounds H01, H07, H11, H12, H14, H15, H22, H25, H29, H30, H33, H39, and H44 and the positive drug indomethacin (Diamond Reagent Co., Ltd., China) by intragastric administration at the dosages shown in the table below and 20 μL 1% (W/V) carrageenan was injected subcutaneously into the plantar 0.5 h later. A paw volume was measured with a paw swelling meter before and at different time points after modeling (0.5 h, 1 h and 2 h). According to the formula: paw swelling rate=(paw volume after administration−basic paw volume)/basic paw volume×100, the inhibiting effect of the compounds on paw volume was calculated. The basic paw volume was a paw volume before administration.
# Sprague-Dawley (SD) mice = experiment: Concanavalin-induced paw swelling in mice; type: in vivo; conditions: 10 mg/kg intragastric
# Protocol: The inhibiting effects of compounds H13, H14, H09, H11 and compounds of Example 12 on paw swelling in […] were determined after intragastric administration by using Sprague-Dawley (SD) […] (ShanghaiSippr-BK laboratory animal Co. Ltd.), aged 6-7 weeks and weighing 160-180 g as test animals. The anti-inflammatory pharmacodynamics characteristic of the compounds of the invention was discussed.
# A certain amount of compounds were taken and dissolved in 4% Tween 80/0.5% hydroxy propyl methyl cellulose solution.
# Mice were given compounds H01, H07, H11, H12, H14, H15, H22, H25, H29, H30, H33, H39, and H44 and the positive drug indomethacin (Diamond Reagent Co., Ltd., China) by intragastric administration at the dosages shown in the table below and 0.1 ml 0.03% (W/V) concanavalin was injected subcutaneously into the plantar 0.5 h later. A paw volume was measured with a paw swelling meter before modeling and 1 h, 2 h, 4 h and 6 h after modeling. According to the formula: paw swelling rate=(paw volume after administration−basic paw volume)/basic paw volume×100, the inhibiting effect of the compounds on paw volume was calculated. The basic paw volume was a paw volume before administration.
# Blast T cell = experiment: Cell proliferation test of IL-2 stimulated Blast T cell; type: cell-based; conditions: Homo sapiens; IL-2 stimulated Blast T cell proliferation, 72 hours
# Protocol: Inhibiting test of the compounds of the invention on proliferation of Blast T cell and TF-1 cell (American type culture collection) was carried out by the following method. The tested compounds […], and […] were dissolved in dimethyl sulfoxide from 0.0006 to 10 μM in quadruplicate dilutions. […] 10 μg/ml […] was added to stimulate and obtain cells with a density of 2×10^6/mL, which were incubated for 3 days. The cells were washed with phosphate buffer for three times and IL-2 (100 u/ml) was added to stimulate for 1 week. Cells were suspended using the culture medium and seeded at 5×10^4 cell/well density into 96-well plates, and incubated for 1 h with the prepared test compound or DMSO control at various concentrations from 0.0006 to 10 μM diluted by 4-fold volume. After incubation with 20 u/ml of IL-2 (50 μl/well without reference well) for 72 hours, Celltiter Glo® reagent (Promega, G7571) was added and mixed for 5 minutes, then incubated for 30 minutes at room temperature. The luminescence value was read on SpectraMax L (Molecular Device). […] The IC50 values of the corresponding compounds were then obtained by fitting by using the XLFit fitting tool in excel.
# TF-1 cell = TF-1 cell proliferation test; type: cell-based; conditions: Homo sapiens, 72 h
# Protocol: Inhibiting test of the compounds of the invention on proliferation of Blast T cell and TF-1 cell (American type culture collection) was carried out by the following method. The tested compounds […], and […] were dissolved in dimethyl sulfoxide from 0.0006 to 10 μM in quadruplicate dilutions. […] The luminescence value was read on Microplate Reader (Molecular Device). […] The IC50 values of the corresponding compounds were then obtained by fitting by using the XLFit fitting tool in excel.
# Lewis male mice = experiment: Collagen-induced rheumatoid arthritis model, clinical score; type: in vivo; parameters: key: 0-4 per limb by redness/deformity, max 16 per animal; conditions: clinical score 0-16 per animal, compounds 10 mg/kg twice/day, methotrexate 2 mg/kg every three days
# Protocol: (§1) The effects of compounds H07, H12, H14, H25, H30, H39 and H44 on rheumatoid arthritis in […] were determined after long term administration by using Lewis male […] (Beijing Vital River Laboratory Animal Technology Co., Ltd.), aged 5-6 weeks and weighing […] as test animals. The anti-inflammatory pharmacodynamics characteristic of the compounds of the invention was discussed.
# (§2) A certain amount of compounds were taken and dissolved in 4% Tween 80/0.5% hydroxy propyl methyl cellulose solution. A volume of intragastric administration of mice was 10 ml/kg.
# (§3) Collagen type II was dissolved in 0.1M acetic acid and kept in a 4° C. refrigerator overnight at a collagen concentration of 4 mg/mL. Same volume of incomplete Freund adjuvant (Sigma, USA) was added in collagen before injection in test, which was emulsified high speed homogenizer (30000 rpm) to prepare a collagen emulsion. This procedure was carried out on ice.
# (§4) Mice were immunologically injected with the collagen emulsion by two separate times for modeling on days 1 and 7 (the day before modeling was day 0). 0.1 ml of collagen emulsion prepared as above was injected intradermally into a root of tail at a single point, and 0.2 ml was injected intradermally into back at two points. The animals were subjected to clinical score and paw volume test from day 10 to day 14 after modeling. Animals successfully modeled (average clinical score≥3 points/animal) were assigned to each administration group, with each group included 10 animals. They were administrated intragastrically with above compounds or resolvents at a dosage of 10 mg/kg twice/day, and administrated intragastrically with methotrexate (2 mg/kg, Sigma, USA) every three days, until day 27. During the test, the […] were scored twice a week, and the paw volume and body weight were measured twice.
# (§5) According to the different degrees of lesions (redness and joint deformation), the scores were ranged from 0 to 4 points, with the highest score of 4 points for each limb and 16 points for each animal. Scoring standards are as follows: 0, no redness; 1, slight redness on mid legs (tarsals) or ankles; 2, slight redness from ankles to mid legs (tarsals); 3, medium redness from ankles to tarsometatarsal joints; 4, severe redness from toes or fingers to ankles or wrist joints.
# [2] = as above; type: in vivo, mice; parameters: key: 0-4 per limb by redness/deformity, max 16 per animal; conditions: clinical score 0-16 per animal, Day 0 (before modeling)
# Protocol: as §1, §2, §3, §4, §5
Compound,"AUC(0-t) ([1]; read-out: Area under the curve (AUC0-24, ng/ml · h))","Cmax ([1]; read-out: Plasma concentration (Cmax, ng/ml))","half-life ([1]; read-out: half life (T1/2, h) (converted))",Paw swelling_0.5 h (%) (male ICR mice; 0.5 h),Paw swelling rate_1 h (%) (male ICR mice; 1 h),Paw swelling rate_2 h (%) (male ICR mice; 2 h),Paw swelling rate_1 h (%) (Sprague-Dawley (SD) mice; 1 h),Paw swelling rate_2 h (%) (Sprague-Dawley (SD) mice; 2 h),Paw swelling rate_4 h (%) (Sprague-Dawley (SD) mice; 4 h),Paw swelling rate_6 h (%) (Sprague-Dawley (SD) mice; 6 h),IC50 (Blast T cell),IC50 (TF-1 cell),Score Day 13 (Lewis male mice; Day 13),Score Day 14 (Lewis male mice; Day 14),Score Day 18 (Lewis male mice; Day 18),Score Day 21 (Lewis male mice; Day 21),Score Day 25 (Lewis male mice; Day 25),Score Day 27 (Lewis male mice; Day 27),Score Day 0 [2]
CC[C@@H]1CN(C(=O)NCC(F)(F)F)CC1Nc1c(C#N)cnc2[nH]ccc12 (stereo partly shown) [Compound H01],1720 ± 220 ng·h/mL,578 ± 72 ng/mL,2.13 ± 0.27 h,33.99 ± 1.69%,40.93 ± 1.64%,41.56 ± 5.23%,25.70 ± 1.50%,25.20 ± 2.40%,31.20 ± 3.10%,30.20 ± 3.10%,0.013 µM,0.67 µM,–,–,–,–,–,–,–
"CN(Cc1cnc2nc(N)nc(N)c2n1)c1ccc(C(=O)N[C@@H](CCC(=O)O)C(=O)O)cc1 [Methotrexate, reference compound]",–,–,–,–,–,–,–,–,–,–,–,–,3.10 ± 0.43,3.60 ± 0.37,4.10 ± 0.47,6.45 ± 0.23,8.87 ± 0.21,9.65 ± 0.13,0.00 ± 0.00
